In patent US20230111132A1, “STABILIZATION OF MHC COMPLEXES” (The Regents of the University of California, priority 2019, published 2023):

Columns and labels:
HLA-B*57:01 [1] = target: T1, HLA-B*57:01 (Homo sapiens, UniProt P01889, D201E/D98Y/E176V/E187L/E204Q/E69M/E70A/G107R/I90N/K202T/L105A/L119I/N104I/N87E/Q89R/Q94S/R106L/R155S/R180L/R86G/S101N/S121V/S35A/S48A/T118I/V36M/Y140S/Y91M); experiment: MHC refolding ELISA (capture ELISA of refolded MHC-peptide complex); type: biochemical; parameters: Denatured heavy chain (final concentration 1 μM)
Procedure: FIG. 13. Primary assay: refolding ELISA.
Refolding reactions were set up in 96-well plates on ice by the successive addition of the following: • 1. Refolding Buffer (400 mM Arg-HCl, 100 mM Tris 8.0, 5 mM glutathione (GSH), 0.5 mM glutathione disulfide (GSSG), 1× cOmplete protease inhibitor cocktail); • 2. Beta-2-microglobulin (final concentration 2 μM). • 3. Peptide (final concentration 40 μM). • 4. Denatured heavy chain (final concentration 1 μM).
[…] Meanwhile, 96-well ELISA plate (Coming 3361) was treated with W6/32 (5 μg/mL) at 4° C. overnight. The plate was washed with PBS (2×200 μL), then blocked with 375 μL 3% BSA/PBS at 23° C. for 1 h. After washing the plate with PBST (3×200 μL), 90 μL 1% BSA/PBS was added to each well.
Detection of refolding was performed as follows: • 1. Add 10 μL of the refolding mixture to each well of the ELISA plate. • 2. Incubate the plate with shaking at 23° C. for 1 h. • 3. Wash plate with 1% BSA/PBS (3×200 μL). • 4. Add 50 μL BBM.1-HRP (1 μg/mL in 1% BSA/PBS) and incubate the plate with shaking at 23° C. for 1 h. • 5. Wash plate with PBST (3×200 μL). • 6. Wash plate with PBS (1×100 μL). • 7. Add 50 μL TMB Ultra and incubate the plate with shaking for 5 min. • 8. Stop the reaction by addition of 20 μL 2.0 M sulfuric acid. • Read absorbance at 450 nm within 10 min. […]

HLA-B*57:01 [2] = target: T1, HLA-B*57:01; conditions: PepV HSITYLLPV; known; cited from earlier work

SMILES	MHC-peptide complex formation after 72 h (HLA-B*57:01 [1]; 40 μM G12V 7-16, 1% DMSO, 10° C., 72 hours)	stabilization of PepV in HLA-B*57:01 (HLA-B*57:01 [2])	stabilization of the presentation of mutant K-Ras peptides by HLA-B*57:01 (HLA-B*57:01 [1]; peptide panel VVVGAVGVGG/A/V/I/K/W and HSITYLLPV (FIG. 8, FIG. 9))
CNS(=O)(=O)c1cc(Nc2nccc(N(C)c3ccc4nn(C)c(C)c4c3)n2)ccc1C [09-045B]	may be less susceptible to this instability		
Nc1nc(NC2CC2)c2ncn([C@H]3C=C[C@@H](CO)C3)c2n1 [abacavir]		stabilized	induced stabilization
